± gives the standard deviation of the averaged measurements.

Compound in one assay: CC[C@@H]1C(=O)N(C)c2cnc(Nc3ccc(C(=O)NC4CCN(C)CC4)cc3OC)nc2N1C1CCCC1 [BI-2536]
Briefly: surviving fraction relative to DMSO-only wells; higher = less growth inhibition. The note with it: exposure time: 5 days. The method, boiled down:
(§1)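 Viability values are CellTiter-Glo luminescence readings, given as surviving fraction against the median of DMSO-only wells. The readings were taken after 10 minutes at room temperature, following five days of continuous exposure to inhibitors at 0.5, 1, 5, 10, 50, 100, 500 and 1000 nM that began 24 hours after log-phase tumour cell lines were seeded at 250–500 cells per well in 384-well plates. Every line was screened three times and kept only if replicate Pearson r >0.7 and median Z' >0.3.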

Compound in a further assay: CCCCCCCCCCCCCCCC(=O)Nc1ccn([C@@H]2O[C@H](CO)[C@@H](O)[C@@H]2C#N)c(=O)n1 [SAPACITABINE]
Described as above. Particulars: exposure time: 5 days. In short, it runs like this: as §1

In the case of SG43 HEADNECK, the surviving fraction with BI-2536 (0.5 nM) came out at 0.902 ± 0.22; in the assay with BI-2536 (1 nM), 1.04 ± 0.23; in the assay with BI-2536 (5 nM) it was 0.734 ± 0.16; with BI-2536 (10 nM) it was 0.715 ± 0.099; with BI-2536 (50 nM), 0.454 ± 0.079; with BI-2536 (100 nM) it was 0.323 ± 0.12. Besides, the surviving fraction in the assay with BI-2536 (500 nM) is 0.17 ± 0.051; with BI-2536 (1000 nM), 0.0543 ± 0.014; with SAPACITABINE (0.5 nM) it was 1.04 ± 0.091; with SAPACITABINE (1 nM) it was 1.28 ± 0.23; with SAPACITABINE (5 nM), 1.08 ± 0.17; with SAPACITABINE (10 nM), 1.11 ± 0.29. The surviving fraction with SAPACITABINE (50 nM) was 0.867 ± 0.14; with SAPACITABINE (100 nM) it was 1.04 ± 0.072; with SAPACITABINE (500 nM), 0.933 ± 0.13; in the assay with SAPACITABINE (1000 nM), 1.05 ± 0.04.
On to “JURKAT HAEMATOPOIETIC AND LYMPHOID TISSUE”, for which the surviving fraction stood at 1.04 ± 0.022 with BI-2536 (0.5 nM); 0.911 ± 0.015 in the assay with BI-2536 (1 nM); 0.028 ± 0.001 in the assay with BI-2536 (5 nM); 0.0257 ± 0.00058 with BI-2536 (10 nM); 0.0297 ± 0.00058 with BI-2536 (50 nM); 0.0217 ± 0.00058 with BI-2536 (100 nM). Moreover, the surviving fraction was 0.0177 ± 0.00058 with BI-2536 (500 nM); 0.021 with BI-2536 (1000 nM); 0.944 ± 0.031 in the assay with SAPACITABINE (0.5 nM); 0.973 ± 0.03 with SAPACITABINE (1 nM); 0.52 ± 0.0059 with SAPACITABINE (5 nM); 0.245 ± 0.008 with SAPACITABINE (10 nM). Further, the surviving fraction was found to be 0.078 ± 0.0036 in the assay with SAPACITABINE (50 nM), 0.034 ± 0.001 with SAPACITABINE (100 nM), 0.0213 ± 0.00058 with SAPACITABINE (500 nM) and 0.023 with SAPACITABINE (1000 nM).
As to SCC47 HEADNECK, the surviving fraction with BI-2536 (0.5 nM) was 1.05 ± 0.095; with BI-2536 (1 nM), 1.01 ± 0.066; with BI-2536 (5 nM), 0.455 ± 0.013; with BI-2536 (10 nM) it was 0.367 ± 0.034; with BI-2536 (50 nM) it was 0.403 ± 0.046; with BI-2536 (100 nM) it was 0.464 ± 0.045. Also, the surviving fraction is 0.437 ± 0.018 in the assay with BI-2536 (500 nM); 0.356 ± 0.02 with BI-2536 (1000 nM); 0.937 ± 0.093 in the assay with SAPACITABINE (0.5 nM); 0.939 ± 0.063 with SAPACITABINE (1 nM); 0.982 ± 0.063 with SAPACITABINE (5 nM); 0.948 ± 0.072 with SAPACITABINE (10 nM). Further, the surviving fraction came out at 1.05 ± 0.057 in the assay with SAPACITABINE (50 nM), 0.988 ± 0.079 with SAPACITABINE (100 nM), 0.71 ± 0.033 with SAPACITABINE (500 nM) and 0.597 ± 0.0027 with SAPACITABINE (1000 nM).
For the test system YAMATO SYNOVIAL, the surviving fraction with BI-2536 (0.5 nM) was found to be 1.05 ± 0.061; in the assay with BI-2536 (1 nM) it was 0.888 ± 0.05; with BI-2536 (5 nM), 0.345 ± 0.0062; with BI-2536 (10 nM), 0.315 ± 0.0095; with BI-2536 (50 nM), 0.324 ± 0.013; in the assay with BI-2536 (100 nM), 0.256 ± 0.014. The surviving fraction with BI-2536 (500 nM) turned out to be 0.279 ± 0.018; with BI-2536 (1000 nM) it was 0.336 ± 0.027; with SAPACITABINE (0.5 nM), 0.776 ± 0.044; with SAPACITABINE (1 nM) it was 0.446 ± 0.029; with SAPACITABINE (5 nM) it was 0.684 ± 0.053; in the assay with SAPACITABINE (10 nM), 0.11 ± 0.0083. In addition, the surviving fraction in the assay with SAPACITABINE (50 nM) amounted to 1.04 ± 0.062; with SAPACITABINE (100 nM) it was 0.511 ± 0.021; with SAPACITABINE (500 nM) it was 0.402 ± 0.01; with SAPACITABINE (1000 nM), 0.0903 ± 0.0049.
CADOES1 SOFT TISSUE: the surviving fraction with BI-2536 (0.5 nM) turned out to be 1.04 ± 0.059; with BI-2536 (1 nM), 0.939 ± 0.059; with BI-2536 (5 nM), 0.872 ± 0.093; with BI-2536 (10 nM), 0.792 ± 0.12; with BI-2536 (50 nM) it was 0.193 ± 0.025; in the assay with BI-2536 (100 nM), 0.0877 ± 0.018. The surviving fraction with BI-2536 (500 nM) turned out to be 0.0517 ± 0.016; with BI-2536 (1000 nM), 0.0513 ± 0.0051; in the assay with SAPACITABINE (0.5 nM) it was 1.04 ± 0.053; with SAPACITABINE (1 nM), 1.03 ± 0.022; in the assay with SAPACITABINE (5 nM), 0.915 ± 0.11; with SAPACITABINE (10 nM) it was 0.857 ± 0.074. In addition, the surviving fraction turned out to be 0.553 ± 0.075 with SAPACITABINE (50 nM), 0.209 ± 0.066 with SAPACITABINE (100 nM), 0.0497 ± 0.0072 with SAPACITABINE (500 nM) and 0.0437 ± 0.0035 with SAPACITABINE (1000 nM).

Values taken from the supplement of paper PMC6045584.
